According to paper PMC10703812, “Understanding the molecular mechanisms of odorant binding and activation of the human OR52 family” (Nature Communications, 2023):
Several values for one entry are separate records, joined by “and”; a condition that tells them apart may be missing. Identical values can stand only once.

Legend:
Assay type in all cases: cell-based, human
OR52cs [1] = assay: cAMP signaling assay (cAMP sensor) in Hana3A cells
Protocol: For cAMP assay, CRE luciferase assay, and surface ELISA, the full-length OR52cs construct was cloned into the pcDNA3.1 vector. The Lucy signal sequence and FLAG peptide sequence were added to the N-terminus. Mutant constructs were generated by site-directed mutagenesis. For BRET assay, eYFP was added at the C-terminus of OR52cs with a GGGGS linker. Rluc was added to Gα for resonance partner (after L99 for Gαs, and I100 for Gαolf, respectively, with GGGGS linker back and forth). […]
(§1) Hana3A cells were seeded on 96-well white microplates and transfected with OR52cs or the corresponding mutants and cAMP sensor (Promega). The medium was exchanged with CO2-independent medium (Gibco) supplemented with 0.375 mg ml^−1 D-luciferin (Nanolight) 48 h after infection, and cells were incubated in the dark at 20 °C for 2 h. Basal luminescence was detected using a Tristar 2 LB 942 multimode reader (Berthold) until it reached a plateau. Subsequently, various concentrations of odorants and forskolin (Sigma-Aldrich) were added to each well, and luminescence was measured again. Data were analyzed and plotted using GraphPad Prism 9.4.1.

OR52cs [2] = assay: CRE luciferase assay in Hana3A cells; conditions: Fig.S7b, single experiments
Protocol: (§2) For cAMP assay, CRE luciferase assay, and surface ELISA, the full-length OR52cs construct was cloned into the pcDNA3.1 vector. The Lucy signal sequence and FLAG peptide sequence were added to the N-terminus. Mutant constructs were generated by site-directed mutagenesis. For BRET assay, eYFP was added at the C-terminus of OR52cs with a GGGGS linker. Rluc was added to Gα for resonance partner (after L99 for Gαs, and I100 for Gαolf, respectively, with GGGGS linker back and forth).
Hana3A cells were seeded on 96-well white microplates (SPL) and transfected with plasmids encoding CRE-luciferase, OR52cs or R265^6.59A mutant, Renilla luciferase, RTP1S, and Ric8b at a […] ratio 24 h after seeding. 48 h after infection, cells were treated with odorants and incubated at 37 °C for 4 h. Luminescence was measured using a Tristar 2 LB 942 multimode reader (Berthold). All values were divided by the Renilla luciferase activity to normalize the effect of cell confluence. All data were analyzed using GraphPad Prism 9.4.1.

OR52cs ΔN(1–18) = assay: cAMP signaling assay, N-tail deletion mutant; conditions: Fig. 2c
Protocol: as §2, §1

OR52cs D212A = assay: cAMP signaling assay, mutant; design: scale not given here; conditions: Fig.S13b source data, single experiments
Protocol: as §2, §1

OR52cs R265A = assay: CRE luciferase assay in Hana3A cells, mutant; conditions: 100 µM carboxylic acid; Fig.S7a, single experiments
Protocol: as §2
48 h after infection, cells were treated with odorants and incubated at 37 °C for 4 h. […] All values were divided by the Renilla luciferase activity to normalize the effect of cell confluence. All data were analyzed using GraphPad Prism 9.4.1.

OR52cs S114A = assay: cAMP signaling assay, mutant; design: cAMP response: scale not given here; conditions: for cAMP response: Fig.S13b source data, single experiments
Protocol: as §2, §1

OR52cs H275A = assay: cAMP signaling assay, mutant; design: cAMP response: scale not given here; conditions: for cAMP response: Fig.S13b source data, single experiments
Protocol: as §2, §1

OR52cs Y254A = assay: cAMP signaling assay, mutant; design: cAMP response: scale not given here; conditions: for cAMP response: Fig.S13b source data, single experiments
Protocol: as §2, §1

OR52cs I208A = assay: cAMP signaling assay, mutant; design: cAMP response: scale not given here; conditions: for cAMP response: Fig.3d source data, single experiments
Protocol: as §2, §1

OR52cs F253A = assay: cAMP signaling assay, mutant; design: cAMP response: scale not given here; conditions: for cAMP response: Fig.S13b source data, single experiments
Protocol: as §2, §1

OR52cs / Gαs = assay: BRET assay, G protein recruitment to OR52cs; conditions: 500 µM OCA; Gαs-Rluc; Fig.S2a, single experiments; listed as OCA
Protocol: as §2
(§3) All signaling assays were performed in Hana3A cells, which were kindly provided by Dr. Matsunami. Cells were seeded on 6-well clear plate (SPL) and co-transfected with OR52cs-eYFP, Gαs-Rluc or Gαolf-Rluc, Gβ1 and Gγ2 at a 5:1:1:1 ratio. 48 h after infection, cells were collected and resuspended with PBS. 500 μM of OCA was treated to the cells, and cells were transferred to 96-well white microplate (SPL). Coelenterazine H (Nanolight) was added to each well at a final concentration of 10 μM and luminescence was measured using a Tristar 2 LB 942 multimode reader (Berthold). Data were analyzed using GraphPad Prism 9.4.1.

OR52cs / Gαolf = assay: BRET assay, G protein recruitment to OR52cs; conditions: 500 µM OCA; Gαolf-Rluc; Fig.S2a, single experiments; listed as OCA
Protocol: as §2, §3

CCCCCCCC(=O)O [Octanoate, octanoic acid]
EC50 (OR52cs [1]; Supplementary Fig. 13b): 7 µM | X-fold over OR52cs (relative fold of EC50) (OR52cs [1]; Supplementary Table 3): 1 | EC50 (OR52cs [1]; Supplementary Table 3, N=5): 7.9 µM | pEC50 ± SEM (OR52cs [1]; Supplementary Table 3, N=5): 5.230 ± 0.107 | cAMP response (OR52cs [1]; odorant 9.18274e-8 M, Fig.S11a source data, single experiments): 5.085 and 3.831 and 4.775 and 5.026 | cAMP response (OR52cs [1]; odorant 9.18274e-7 M, Fig.S11a source data, single experiments): 14.274 and 13.5525 and 12.3756 and 13.817 | cAMP response (OR52cs [1]; odorant 9.18274e-6 M, Fig.S11a source data, single experiments): 55.4145 and 67.6331 and 64.1017 and 55.2862 | cAMP response (OR52cs [1]; odorant 3.0303e-5 M, Fig.S11a source data, single experiments): 86.9919 and 78.2813 and 84.5166 and 65.845 | cAMP response (OR52cs [1]; odorant 0.0001 M, Fig.1a source data, single experiments): 127.982 and 109.844 and 107.02 and 115.524 and 104.582 | cAMP response (OR52cs [1]; odorant 0.0001 M, Fig.S11a source data, single experiments): 98.5501 and 101.54 and 117.496 and 98.6522 | cAMP response (raw signal) upon OCA treatment (OR52cs [1]; odorant 0.001 M (1 mM OCA), Fig.S11a left, single experiments, listed as Octanotae): 146668 and 160587 and 152997 and 131980 | cAMP response (OR52cs [1]; odorant 0.001 M, Fig.1a source data, single experiments): 103.349 and 98.3823 and 101.697 and 99.3544 and 97.2175 | cAMP response (OR52cs [1]; odorant 0.001 M, Fig.S11a source data, single experiments): 95.2215 and 104.803 and 111.594 and 89.2504 | relative fold of CRE luciferase activity (OR52cs [2]; odorant 10 μM): 1.744 fold and 2.175 fold and 2.388 fold and 2.247 fold | relative fold of CRE luciferase activity (OR52cs [2]; odorant 50 μM): 4.124 fold and 3.914 fold and 5.3918 fold and 4.986 fold | relative fold of CRE luciferase activity (OR52cs [2]; odorant 100 μM): 4.893 fold and 4.461 fold and 6.103 fold and 6.04 fold | relative fold of CRE luciferase activity (OR52cs [2]; odorant 250 μM): 5.851 fold and 4.875 fold and 6.831 fold and 6.812 fold | relative fold of CRE luciferase activity (OR52cs [2]; odorant 500 μM): 8.532 fold and 7.359 fold and 7.746 fold and 7.343 fold | downstream signaling (in words) (OR52cs ΔN(1–18)): loss of downstream signaling | cAMP response (OR52cs D212A; odorant 9.18274e-6 M): 0.5276 and 0.521 and 1.015 | cAMP response (OR52cs D212A; odorant 3.0303e-5 M): 0.9753 and 0.9567 and 1.328 | cAMP response (OR52cs D212A; odorant 0.0001 M): 4.038 and 3.668 and 3.274 | cAMP response (OR52cs D212A; odorant 0.001 M): 42.8474 and 43.8072 and 40.1115 | relative fold (luciferase activity over DMSO) (OR52cs R265A): 1.143 fold and 0.8826 fold and 1.532 fold and 1.19 fold | EC50 (OR52cs S114A; Supplementary Fig. 13b): 54 µM | cAMP response (OR52cs S114A; odorant 9.18274e-7 M): 0.7937 and 0.8194 and 1.08 | cAMP response (OR52cs S114A; odorant 9.18274e-6 M): 9.728 and 8.57 and 11.8154 | cAMP response (OR52cs S114A; odorant 3.0303e-5 M): 42.675 and 40.9596 and 54.3071 | cAMP response (OR52cs S114A; odorant 0.0001 M): 71.9561 and 66.6762 and 91.932 | cAMP response (OR52cs S114A; odorant 0.001 M): 103.979 and 112.532 and 126.832 | EC50 (OR52cs H275A; Supplementary Fig. 13b): 67 µM | cAMP response (OR52cs H275A; odorant 9.18274e-7 M): 1.163 and 1.2177 and 0.8093 | cAMP response (OR52cs H275A; odorant 9.18274e-6 M): 12.1088 and 9.48 and 7.718 | cAMP response (OR52cs H275A; odorant 3.0303e-5 M): 33.8567 and 32.1825 and 24.2227 | cAMP response (OR52cs H275A; odorant 0.0001 M): 62.7151 and 60.5238 and 53.5809 | cAMP response (OR52cs H275A; odorant 0.001 M): 101.549 and 94.9309 and 77.7131 | EC50 (OR52cs Y254A; Supplementary Fig. 13b): 0.6 µM | cAMP response (OR52cs Y254A; odorant 9.18274e-8 M): 3.215 and 2.4896 and 3.9476 | cAMP response (OR52cs Y254A; odorant 9.18274e-7 M): 17.867 and 17.7491 and 20.6138 | cAMP response (OR52cs Y254A; odorant 9.18274e-6 M): 27.7636 and 29.4886 and 28.529 | cAMP response (OR52cs Y254A; odorant 3.0303e-5 M): 29.9943 and 28.2884 and 30.9686 | cAMP response (OR52cs Y254A; odorant 0.0001 M): 31.1114 and 30.9026 and 31.9237 | cAMP response (OR52cs Y254A; odorant 0.001 M): 30.3248 and 30.6953 and 33.5912 | X-fold over OR52cs (relative fold of EC50) (OR52cs I208A; Supplementary Table 3): 0.65 | EC50 (OR52cs I208A; Supplementary Table 3, N=3): 5.1 µM | pEC50 ± SEM (OR52cs I208A; Supplementary Table 3, N=3): 5.321 ± 0.119 | cAMP response (OR52cs I208A; odorant 9.18274e-7 M): 9.649 and 7.873 and 7.984 | cAMP response (OR52cs I208A; odorant 9.18274e-6 M): 74.2921 and 59.9569 | cAMP response (OR52cs I208A; odorant 3.0303e-5 M): 118.216 and 87.9298 and 99.5696 | cAMP response (OR52cs I208A; odorant 0.0001 M): 123.062 and 85.14 and 99.773 | cAMP response (OR52cs I208A; odorant 0.001 M): 115.233 and 86.0111 and 85.4934 | EC50 (OR52cs F253A; Supplementary Fig. 13b): 219 µM | cAMP response (OR52cs F253A; odorant 9.18274e-8 M): 0.6755 and 1.259 and 1.115 | cAMP response (OR52cs F253A; odorant 9.18274e-7 M): 1.327 and 1.6492 and 1.457 | cAMP response (OR52cs F253A; odorant 9.18274e-6 M): 3.718 and 4.351 and 3.597 | cAMP response (OR52cs F253A; odorant 3.0303e-5 M): 11.1366 and 13.9484 and 11.2845 | cAMP response (OR52cs F253A; odorant 0.0001 M): 38.3735 and 42.0381 and 35.9654 | cAMP response (OR52cs F253A; odorant 0.001 M): 106.487 and 105.397 and 81.8862 | ΔBRET (OCA- minus vehicle-treated BRET signal) (OR52cs / Gαs): 0.0184 and 0.01592 and 0.01247 and 0.01013 and 0.01218 | ΔBRET (OCA- minus vehicle-treated BRET signal) (OR52cs / Gαolf): 0.01011 and 0.01399 and 0.007869 and 0.00957 and 0.01164
